# Test results published in ChEMBL document CHEMBL4819028, “Structures and Biosynthetic Pathway of Coprisamides C and D, 2-Alkenylcinnamic Acid-Containing Peptides from the Gut Bacterium of the Carrion Beetle Silpha perforata” (J Nat Prod, 2021).
# Active and inactive are the calls of the source. The calls are words filed in the database; no cut-off is given here.
# Tests used:
# Escherichia coli = assay: Antibacterial activity against Escherichia coli; format: functional, organism-based
# [1] = biological target: NAD(P)H dehydrogenase [quinone] 1 (Mus musculus) (UniProt Q64669); assay: Induction of quinone reductase activity in mouse Hepa1c1c7 cells at 10 uM incubated for 24 hrs by MTT based assay; format: cell-based; conditions: filed as activator
# [2] = tested on: Trichophyton mentagrophytes; assay: […] activity against Trichophyton mentagrophytes; format: functional, organism-based
# Salmonella enterica = assay: Antibacterial activity against Salmonella enterica; format: functional, organism-based
# Aspergillus fumigatus = assay: […] activity against Aspergillus fumigatus; format: functional, organism-based
# Enterococcus faecalis = assay: Antibacterial activity against Enterococcus faecalis; format: functional, organism-based
# [3] = tested on: Mycobacterium tuberculosis; assay: Antitubercular activity against Mycobacterium tuberculosis mc2 6230 assessed as inhibition of bacterial growth incubated for 5 days by REMA; format: functional; conditions: mc2 6230, 120 h, time 5 day
# Enterococcus faecium = assay: Antibacterial activity against Enterococcus faecium; format: functional, organism-based
# [4] = Cytotoxicity against mouse Hepa1c1c7 cells at higher concentration; format: cell-based
# Klebsiella pneumoniae = assay: Antibacterial activity against Klebsiella pneumoniae; format: functional, organism-based
# Staphylococcus aureus = assay: Antibacterial activity against Staphylococcus aureus; format: functional, organism-based
# Candida albicans = assay: […] activity against Candida albicans; format: functional, organism-based
# Trichophyton rubrum = assay: […] activity against Trichophyton rubrum; format: functional, organism-based
# Sequence of NAD(P)H dehydrogenase [quinone] 1 (Mus musculus) (Q64669 whole entry): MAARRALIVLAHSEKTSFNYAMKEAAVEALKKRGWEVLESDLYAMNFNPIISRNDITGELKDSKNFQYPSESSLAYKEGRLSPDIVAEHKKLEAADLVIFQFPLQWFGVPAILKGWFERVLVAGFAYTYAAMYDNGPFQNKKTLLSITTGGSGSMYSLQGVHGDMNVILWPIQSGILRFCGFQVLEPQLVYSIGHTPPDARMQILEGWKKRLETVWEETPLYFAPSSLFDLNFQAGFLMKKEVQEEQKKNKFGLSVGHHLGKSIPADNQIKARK
Compound,Activity (Escherichia coli),fold change (FC) [1],Activity [2],Activity (Salmonella enterica),Activity (Aspergillus fumigatus),Activity (Enterococcus faecalis),MIC50 [3],Activity (Enterococcus faecium),Activity [4],Activity (Klebsiella pneumoniae),Activity (Staphylococcus aureus),Activity (Candida albicans),Activity (Trichophyton rubrum)
CC(C)/C=C/C/C=C\c1ccccc1/C=C/C(=O)N[C@H](C)C(=O)N[C@@H]1COC(=O)[C@H]([C@H](C)C(=O)O)NC(=O)[C@H](CNC(=O)[C@@H](N)C(C)C)NC(=O)[C@H](C(C)C)NC(=O)[C@@H](CC(C)C)NC1=O,inactive,2.4,inactive,inactive,inactive,inactive,82.8 µg/mL,inactive,Toxic,inactive,inactive,inactive,inactive
CC[C@@H](CO)NCCN[C@@H](CC)CO [ETHAMBUTOL],–,–,–,–,–,–,0.83 µg/mL,–,–,–,–,–,–
C/C=C/C=C/C/C=C\c1ccccc1/C=C/C(=O)NC(C)C(=O)N[C@@H]1COC(=O)[C@H]([C@H](C)C(=O)O)NC(=O)[C@H](CNC(=O)C(N)C(C)C)NC(=O)[C@H](C(C)C)NC(=O)[C@@H](CC(C)C)NC1=O (some centres undefined),–,2.6,–,–,–,–,–,–,–,–,–,–,–
C/C=C/C=C/C=C/c1ccccc1/C=C/C(=O)NC(C)C(=O)N[C@@H]1COC(=O)[C@H]([C@H](C)C(=O)O)NC(=O)[C@H](CNC(=O)C(N)C(C)C)NC(=O)[C@H](C(C)C)NC(=O)[C@@H](CC(C)C)NC1=O (some centres undefined),–,2.1,–,–,–,–,–,–,–,–,–,–,–
NNC(=O)c1ccncc1 [ISONIAZID],–,–,–,–,–,–,0.03 µg/mL,–,–,–,–,–,–
CC(C)C/C=C/C=C/c1ccccc1/C=C/C(=O)N[C@H](C)C(=O)N[C@@H]1COC(=O)[C@H]([C@H](C)C(=O)O)NC(=O)[C@H](CNC(=O)[C@@H](N)C(C)C)NC(=O)[C@H](C(C)C)NC(=O)[C@@H](CC(C)C)NC1=O,inactive,2.3,inactive,inactive,inactive,inactive,–,inactive,Toxic,inactive,inactive,inactive,inactive
